# From patent publication US7985745B2, “Method for pain treatment” (Abbott Laboratories, priority 2006, dated 2011)
# Test system: osteoarthritis pain
# Test: MIA-induced knee joint osteoarthritis model, hind limb grip force
# Type: in vivo, rat
# Conditions: grip force 20 days after MIA, % return to normalcy vs naïve group
# Experimental: Unilateral knee joint osteoarthritis was induced in rats by a single intra-articular (i.a.) injection of sodium monoiodoacetate (MIA) (Sigma-Aldrich, St. Louis, Mo.) (3 mg in 50 ul sterile isotonic saline) into the right knee joint cavity under light (1-3%) isoflurane anesthesia.
# Pain behavior was assessed by measurement of hind limb grip force (GF) in adult osteoarthritic rats. Following the unilateral injection of MIA (male Sprague Dawley, 325-350 g, tested at 20 days following MIA injection), a behavioral measure of activity-induced pain was carried out. Measurements of the peak hind limb grip force were conducted by recording the maximum compressive force (CFmax), in grams of force, exerted on a hind limb strain gauge setup, in a commercially available grip force measurement system (Columbus Instruments, Columbus, Ohio).
# During testing, each rat was gently restrained by grasping it around its rib cage and then allowed to grasp the wire mesh frame attached to the strain gauge. The experimenter then moved the animal in a rostral-to-caudal direction until the grip was broken. Each rat was sequentially tested twice at approximately 2-3 min interval to obtain a raw mean grip force (CFmax). This raw mean grip force data was in turn converted to a maximum hindlimb cumulative compressive force (CFmax), as the grams of force/kg of body weight, for each animal.
# For evaluating the compound effects, the hind limb grip force was conducted 20 days following the intra-articular injection of MIA. A group of age-matched naïve (not injected with MIA) animals was added as a comparator to the drug-dosed groups. The vehicle control response for each group of MIA-treated animals was defined as the 0% response (0% effect), whereas the naïve control group was defined as the normal response and as 100% effect. The % effects for each dose group was expressed as % return of response to normalcy, compared to the naïve group. That is, the % effect=(Treatment CFmax−Vehicle CFmax)/[…]]×100). All experiments evaluating drug effects in this model were conducted in a randomized blinded fashion.
compound,measurement,setting,value
"CN1CCN(C(=O)c2cc3cc(Cl)ccc3[nH]2)CC1 [Example 3, reference compound]",% Effect,100 micromole/kg i.p.,21%
same,% Effect,250 micromole/kg i.p.,47%
